US11230535B2, “CFTR regulators and methods of use thereof” (THE REGENTS OF THE UNIVERSITY OF CALIFORNIA, priority 2015, dated 2022)
“Also recorded” adds a separate entry of the source.

Key:
cAMP = assay: Cellular cAMP immunoassay in CFTR-expressing FRT cells; type: cell-based, rat; conditions: 10 μM, 10 min
Description: cAMP and Ca^2+ assays. FRT cells expressing wildtype CFTR were cultured in 12-well plates. After washing with PBS, cells were incubated for 10 min with compounds in the absence or presence of 90 nM forskolin and then lysed. Lysates were assayed for cAMP content using a cAMP immunoassay kit (Parameter cAMP Immunoassay Kit, R&D Systems, Minneapolis, Minn.). For cytoplasmic calcium measurements, FRT cells in 96-well black-walled microplates were loaded with Fluo-4 NW (Invitrogen, Carlsbad, Calif.) and Fluo-4 fluorescence was measured with a plate reader equipped with syringe pumps and monochromators.

[1] = system: human bronchial epithelial (HBE) cells; assay: Short-circuit current in primary human bronchial epithelial (HBE) cells; type: cell-based; conditions: for short-circuit current responses to ENaC, maximal forskolin or ATP: 10 μM, 10 min pretreatment
Description: FIGS. 16A-16E. Characterization of 6k and 12. FIG. 16A. Cellular cAMP in FRT cells following incubation for 10 min with 10 μM 6k or 12, without or with 90 nM forskolin (fsk), as well as forskolin alone (90 nM and 20 μM) and forskolin (20 μM)+IBMX (100 μM) (mean±S.E.M., n=4). FIG. 16B. Cytoplasmic calcium measured by Fluo-4 fluorescence. FRT cells were pretreated for 5 min with 10 μM 6k or 12 (or control), with 100 μM ATP added as a calcium agonist as indicated. FIG. 16C. TMEM16A activity measured in FRT cells expressing YFP showing no inhibition (left, iodide+ATP addition) or activation (right, iodide addition) by 10 μM 6k or 12. FIG. 16D. […] FIG. 16E. (left) Short circuit-current in primary cultures of human bronchial epithelial cells in response to agonists and inhibitors that target key ion transport processes: 20 μM amiloride (ami); 20 μM forskolin (fsk); 10 μM CFTRinh-172; 100 μM ATP. Experiments were done without activator or following 10-min preincubation with 10 μM 6k or 12 (right). CFTR activation by 12 after 100 nM forskolin (20 μM amil, 10 μM CFTRinh-172, 100 μM ATP). Studies in B-E are representative of 2-4 separate sets of experiments.
Short-circuit current measurement. Short-circuit current measurements were done as described. Briefly, Snapwell (Corning Costar, Corning, N.Y.) inserts containing CFTR-expressing FRT cells or human bronchial epithelial cells were mounted in Ussing chambers (Physiological Instruments, San Diego, Calif.). For FRT cells the hemichambers were filled with 5 ml of HCO3^−-buffered solution (basolateral) and half-Cl^− solution (apical), and the basolateral membrane was permeabilized with 250 μg/ml amphotericin B. Symmetrical HCO3^−-buffered solutions were used for human bronchial epithelial cells. Solutions were bubbled with 95% O2/5% CO2 and maintained at 37° C., and short-circuit current was measured on a DVC-1000 voltage clamp (World Precision Instruments Inc., Sarasota, Fla.) using Ag/AgCl electrodes and 3 M KCl agar bridges.

mouse colon = assay: Short-circuit current in freshly harvested mouse colon; conditions: freshly isolated mouse colon; read-out: EC50, increase in short-circuit current (Cl− secretion)
Description: Short-circuit current was measured in FRT cells stably expressing wild-type human CFTR cultured on porous filters as described. The basolateral solution contained 130 mM NaCl, 2.7 mM KCl, 1.5 mM KH2PO4, 1 mM CaCl2, 0.5 mM MgCl2, 10 mM glucose, and 10 mM Na-HEPES (pH 7.3, 37° C.). In the apical solution 65 mM NaCl was replaced by Na gluconate, and CaCl2 was increased to 2 mM, and the basolateral membrane was permeabilized with 250 μg/ml amphotericin B. Short-circuit current was measured in freshly harvested adult mouse colon at 37° C. using symmetrical Krebs-bicarbonate buffer.
Short-circuit current measurement. Short-circuit current was measured in FRT cells stably expressing wild-type human CFTR cultured on porous filters as described. The basolateral solution contained 130 mM NaCl, 2.7 mM KCl, 1.5 mM KH2PO4, 1 mM CaCl2, 0.5 mM MgCl2, 10 mM glucose, and 10 mM Na-HEPES (pH 7.3, 37° C.). In the apical solution 65 mM NaCl was replaced by Na gluconate, and CaCl2 was increased to 2 mM, and the basolateral membrane was permeabilized with 250 μg/ml amphotericin B. Short-circuit current was measured in freshly harvested adult mouse colon at 37° C. using symmetrical Krebs-bicarbonate buffer.

[2] = Compound accumulation in systemic tissues after 14 days topical dosing; type: in vivo, mouse; conditions: for amount in mouse blood, brain, liver and kidney (below limit of detection): two weeks, three times per day topical 0.1 nmol
mice = assay: Ocular toxicity after chronic topical dosing (slit-lamp, lissamine green staining); type: in vivo; conditions: two weeks, three times per day topical
Description: (§1) To assess corneal epithelial disruption, 5 μL of lissamine green (LG) dye (1%) was applied to the ocular surface of isofluorane-anesthetized mice. Photographs of the eye were taken using a Nikon Digital camera adapted to an Olympus Zoom Stereo Microscope (Olympus, Center Valley, Pa., USA). Each corneal quadrant was scored on a 3-point scale by one blinded, trained observer, with the extent of staining in each quadrant classified as: 0, no staining; 1, sporadic (involving <25% of the total surface) staining; grade 2, diffuse punctate staining (25-75%); and grade 3, coalesced punctate staining (≥75%). The total grade is reported as the sum of scores from all four quadrants, ranging from 0 to 12.
as §1, with “Lissamine green staining. To” for “To”

[3] = Chemical stability in ophthalmic vehicle (LC/MS); type: physicochemical; conditions: 100 μM, 0.3% CMC in Ringer's solution, 24 h at 40° C.

| SMILES | cellular cAMP (cAMP) | short-circuit current responses to ENaC, maximal forskolin or ATP [1] | EC50 (mouse colon) | amount in mouse blood, brain, liver and kidney (below limit of detection) [2] | LG staining after chronic dosing (mice) | ocular toxicity (slit-lamp: conjunctival hyperemia, anterior chamber inflammation, lens clarity) (mice) | systemic absorption, in words ([2]; topical) | CFTR activation in HBE cells after forskolin ([1]; 0.1 μM, following 100 nM forskolin) | CFTR activation in HBE cells without forskolin ([1]; absence of basal CFTR phosphorylation) | chemical stability in ophthalmic vehicle [3] |
| --- | --- | --- | --- | --- | --- | --- | --- | --- | --- | --- |
| CCN(CC)c1nc(Nc2ccc3ncsc3c2)nc(OC(C(F)(F)F)C(F)(F)F)n1 [6k, N′-(1,3-Benzothiazol-6-yl)-N,N-diethyl-6-[(1,1,1,3,3,3-hexafluoropropan-2-yl)oxy]-1,3,5-triazine-2,4-diamine] | did not elevate cellular cAMP | did not alter short-circuit current responses | – | – | – | – | – | – | – | – |
| Nc1ccc([N+](=O)[O-])cc1-c1nc2ccccc2n(Cc2ccccc2)c1=O [CFTRact-J027, 3-(2-amino-5-nitrophenyl)-1-benzylquinoxalin-2(1H)-one] | – | – | ~300 nM | < 700 fmol | no corneal or conjunctival epithelial disruption | no signs of ocular toxicity | – | – | – | – |
| CCN(CC)c1nc(Nc2ccccc2)nc(OC(C(F)(F)F)C(F)(F)F)n1 [CFTRact-K089, N,N-Diethyl-6-[(1,1,1,3,3,3-hexafluoropropan-2-yl)oxy]-N′-phenyl-1,3,5-triazine-2,4-diamine] | – | – | – | < 10 fmol | no corneal or conjunctival epithelial disruption | no signs of ocular toxicity | without detectable systemic absorption | – | – | – |
| CNc1nc(Nc2ccccc2)nc(OCC(F)(F)C(F)F)n1 [compound 12, N-methyl-N′-phenyl-6-(2,2,3,3-tetrafluoropropoxy)-1,3,5-triazine-2,4-diamine] | without causing cAMP or calcium elevation; also recorded: did not elevate cellular cAMP | did not alter short-circuit current responses | – | – | – | – | – | fully activated CFTR | did not activate CFTR | stable at 100 μM in an ophthalmic vehicle; also recorded: remained chemically stable |
